Test results taken from patent publication US7893094B2, “Amphiphilic pyridinium compounds, method of making and use thereof” (The Henry M. Jackson Foundation for the Advancement of …, priority 2003, dated 2011).
Where two headings read alike, the source gives them in different places.

Test system: IL-8 secretion from CF IB-3 cells
Experiment: Suppression of spontaneously-elevated (constitutive) IL-8 secretion in IB-3 CF lung epithelial cells, IL-8 ELISA normalised to DNA
Type: cell-based
Conditions: for loss of potency: IL-8 secretion, relative to the most potent analogue, Compound 3
Method: The CF lung epithelial cells IB3 and S9 have been previously described [Zeitlin et al., 1991; Eidelman et al., 2001a)]. Both […] and S9 cells were grown in serum-free LHC-8 medium (Biofluids), formulated without gentimycin. CF tracheal epithelial cells (2CFTE29o-) were obtained from University of Vermont. The latter cells were grown in EMEM (Biofluids), supplemented with 10% fetal bovine serum (FBS) and 1% Penicillin G-Streptomycin.
Initial assays for dug effects in the screening paradigm were performed in duplicate at 10, 3, 1, and 0.3 μM concentrations on IB-3 cells grown in 96 well microtiter plates. Each individual plate contained IB-3 and IB-3/S9 cells to set the boundary conditions of the assay. CPX and DAX, 5 μM each, were included in separate wells as positive controls. “Hits” in the screen were chosen on the basis of at least a 50% reduction in constitutive IL-8 secretion. Following a positive retest, candidate compounds were taken off-line for more detailed analysis under the exact same assay conditions. […] In most circumstances we use a maximum final solvent concentration of 0.1% DMSO or 0.01% ETOH.
The details of this assay have been described in a previous publication (Eidehman et la., 2001 a). Briefly, IB-3 cells are grown in 96 well microtiter plates to 80% confluency. Drugs, diluted in LHC-8 medium at the given concentrations, are added, and the cells allowed to incubate for an additional 24 hours. To initiate the experiment, cells are washed with fresh LHC-8 medium, and then incubated for an additional 16 hours in the same medium supplemented with drug. At the end of the time period, the supernatant solutions are collected and assayed for IL-8 by and ELISA assay. Alternatively, the samples are immediately frozen at −80° C. […] The IL-8 ELISA assay was assembled from bulk materials purchased from R&D, and performed exactly according to the manufacturers specifications. To detect possible drug toxicity on cells, as well as normalize to total cells per well, we measure the double stranded DNA content of cells attached to the plate after removal of supernatant solutions for IL-8 assay. Cells remaining on the plate are then fixed with 10% formalin for 30 minutes at room temperature before being incubated with propidium iodide (kit from Boehringer Mannheim). Propidium iodide content in each well is then measured with an automated fluorescence plate reader (FLUOstar Optima, MBG Lab Technologies). Final IL-8 data are calculated as a ratio of secreted IL-8 to DNA for each well. On occasion, cell proliferation assays are also carried out using the XTT assay (Roche).

[1] = inhibition of IL-8 secretion from CF IB-3 cells, Table 3 prints no unit (b104 gives μM for Compound 3), read-out: IC50

Molecule	IC50 [1] [µM]	activity on IL-8 secretion/production, in words	other results
8-(3-carboxyamido-pyridinium)-n-octylα-methyl-2-(4[2-methylpropyl]benzene)-acetate iodide [Compound 18]	5.56 ± 0.98	–	–
8-Pyridinium-n-octyl benzoate iodide [Compound 11]	> 30	–	–
8-Pyridinium-n-octyl propionate iodide [Compound 7]	12 ± 0.8	–	loss of potency: 34 fold
C[C@H](OCc1ccccc1)C(=O)OCCCCCCCC[n+]1ccccc1 [Compound 10, S-8-Pyridinium-n-octyl α-benzyloxy-2-propionate iodide]	> 30	–	–
CC(C(=O)OCCCCCCCC[n+]1ccccc1)c1ccc(NC(=O)OC(C)(C)C)cc1.[I-] (stereo not drawn) [Compound 16]	4.6 ± 0.9	retention of the activity	–
CC(C(=O)OCCCCCCCC[n+]1ccccc1)c1ccc(N)cc1.I.[I-] (stereo not drawn) [Compound 17, 8-Pyridinium-n-octyl α-methyl-2-[4-ammonium-phenyl]acetate iodide]	> 30	eliminated activity	–
CC(C)Cc1ccc([C@H](C)C(=O)OCCCCCCCC[N+]2(C)CCOCC2)cc1.[Br-] [Compound 21, S-8-[N-Methylmorpholinium-n-octyl α-methyl-2-(4]2-methylpropyl]benzene)acetate bromide]	24 ± 1	–	–
R-8-Pyridinium-n-butyl α-methyl-2-phenylacetate iodide [Compound 1]	> 30	–	–
R-8-Pyridinium-n-decyl α-methyl-2-phenylacetate iodide [Compound 4]	2.52 ± 0.39	–	–
R-8-Pyridinium-n-hexyl α-methyl-2-phenylacetate iodide [Compound 2]	> 30	–	–
R-8-Pyridinium-n-octyl 2-hydroxy-3-phenylpropionate iodide [Compound 12]	> 30	no activity was evident	–
R-8-Pyridinium-n-octyl α-ethyl-2-phenylacetate iodide [Compound 8]	3.16 ± 0.52	eliminated the activity	–
R-8-Pyridinium-n-octyl α-hydroxy-α-methyl-2-phenylacetate iodide [Compound 6]	> 30	failed to restore the activity	–
R-8-Pyridinium-n-octyl α-methyl-2-phenylacetate iodide [Compound 3]	–	–	IC50 (IB-3 CF cells, read-out: IC50, inhibition of IL-8 secretion): 0.35 µM; stereoselectivity of action in favor of the (R)-isomer (IL-8 production, Compound 3 (R) versus its enantiomer Compound 5): > 70 fold
S,S-1.8-di((α-methyl 2-(4-[2-methylpropyl]phenyl acetoxy)-n-octane [Compound 22]	> 30	eliminated the activity	–
S-8-(4-2-hydroxy-ethyl)pyridinium)-n-octyl α-methyl-2-(4-[2-methylpropyl]benzene)acetate bromide [Compound 20]	18 ± 0.9	–	–
S-8-(4-n-Prolpylpyridinium)-n-octyl α-methyl-2-(4-[2-methylpropyl]benzene)acetate bromide [Compound 19]	3.3 ± 0.5	–	–
S-8-Pyridinium-n-octyl 2-hydroxy-3-phenylpropionate iodide [Compound 13]	> 30	no activity was evident	–
S-8-Pyridinium-n-octyl α-methoxy-2-phenylacetate iodide [Compound 9]	> 30	failed to restore the activity	–
S-8-Pyridinium-n-octyl α-methyl-2-(4-[2-methylpropyllbenzeneacetate bromide [Compound 15]	2.2 ± 0.8	–	loss of potency: 6 fold
S-8-Pyridinium-n-octyl α-methyl-2-phenylacetate iodide [Compound 5]	> 25	much less active	–
